Series [1] has as its system TTR. Kind of series: TTR editing in primary cyno hepatocytes electroporated with Spy Cas9 protein and dgRNAs (Tables 10, 11). Type of series: cell-based, cynomolgus monkey. The note with it: Table 10; primary cyno hepatocytes electroporated with Spy Cas9 protein (RNP) and dgRNAs. The procedure, abridged:
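Editing efficiency is the fraction of NGS reads carrying insertions, deletions or substitutions at the TTR target, measured on MiSeq amplicons from DNA harvested 24, 48 or 72 h post-delivery. Cas9–dgRNA ribonucleoprotein was nucleofected (P3 buffer, EX-147) into primary human or cyno hepatocytes.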

Series [2] concerns TTR. In words: TTR editing in primary human hepatocytes transfected with Spy Cas9 mRNA and sgRNAs (Table 13). Type of series: cell-based. The note with it: primary human hepatocytes co-transfected with Spy Cas9 mRNA (SEQ ID NO:2) and sgRNAs, 12.5 nM. On the procedure:
Primary liver hepatocytes. Primary human liver hepatocytes (PHH) and primary cynomolgus liver hepatocytes (PCH) (Gibco) were cultured per the manufacturer's protocol (Invitrogen, protocol 11.28.2012). In brief, the cells were thawed and resuspended in hepatocyte thawing medium with supplements (Gibco, Cat. CM7000) followed by centrifugation at 100 g for 10 minutes for human and 80 g for 4 minutes for cyno. The supernatant was discarded and the pelleted cells resuspended in hepatocyte plating medium plus supplement pack (Invitrogen, Cat. A1217601 and CM3000). Cells were counted and plated on Bio-coat collagen I coated 96-well plates (ThermoFisher, Cat. 877272) at a density of 33,000 cells/well for human or 60,000 cells/well for cyno (or 65,000 cells/well when assaying effects on TTR protein, described further below). Plated cells were allowed to settle and adhere for 6 or 24 hours in a tissue culture incubator at 37° C. and 5% CO2 atmosphere. After incubation cells were checked for monolayer formation and media was replaced with hepatocyte culture medium with serum-free supplement pack (Invitrogen, Cat. A1217601 and CM4000).
Lipofectamine RNAiMax (ThermoFisher, Cat. 13778150) based transfections were conducted as per the manufacturer's protocol. Cells were sequentially transfected with a lipoplex containing Spy Cas9 mRNA (100 ng), Lipofectamine RNAiMax (0.4 […]) and tracer RNA ([…]), Lipofectamine RNAiMax (0.4 μL/well) and OptiMem.
Transfected cells were harvested post-transfection at 24, 48, or 72 hours. The genomic DNA was extracted from each well of a 96-well plate using 50 μL/well BuccalAmp DNA Extraction solution (Epicentre, Cat. QE09050) per manufacturer's protocol. All DNA samples were subjected to PCR and subsequent NGS analyses, as described herein.
To quantitatively determine the efficiency of editing at the target location in the genome, sequencing was utilized to identify the presence of insertions and deletions introduced by gene editing.
Primers were designed around the target site within the gene of interest (e.g. TTR), and the genomic area of interest was amplified.
Additional PCR was performed per the manufacturer's protocols (Illumina) to add chemistry for sequencing. The amplicons were sequenced on an Illumina MiSeq instrument. The reads were aligned to a reference genome (e.g., the human reference genome (hg38), the cynomologus reference genome (mf5), the rat reference genome (rn6), or the mouse reference genome (mm10)) after eliminating those having low quality scores. The resulting files containing the reads were mapped to the reference genome (BAM files), where reads that overlapped the target region of interest were selected and the number of wild type reads versus the number of reads which contain an insertion, substitution, or deletion was calculated.
The editing percentage (e.g., the “editing efficiency” or “percent editing” or “indel frequency”) is defined as the total number of sequence reads with insertions/deletions (“indels”) or substitutions over the total number of sequence reads, including wild type.
Guides in modified sgRNA format targeting human and/or cyno TTR were delivered to primary human hepatocytes and primary cyno hepatocytes as described in Example 1. Percent editing was determined for crRNAs comprising each guide sequence across each cell type and the guide sequences were then rank ordered based on highest % edit. The screening data for the guide sequences in Table 2 in both cell lines are listed below (Table 12 through 15).

For series [3], the system named is off-target integration sites. Kind of series: Off-target oligo insertion based assay in primary human hepatocytes (Table 30). To be noted: TTR sgRNAs in PHH, 100 ng Cas9 mRNA, 25 nM sgRNA, 12.5 nM donor oligo. The series is classed as cell-based. Here is the method:
Off-target analysis of sgRNAs targeting TTR was performed in primary human hepatocytes (PHH) as described in Example 5, with the following modifications. PHH were plated at a density of 33,000 cells per well on collagen-coated 96-well plates as described in Example 1. Twenty-four hours post plating, cells were washed with media and transfected using Lipofectamine RNAiMAX (ThermoFisher, Cat. 13778150) as described in Example 1. Cells were transfected with a lipoplex containing 100 ng Cas9 mRNA, immediately followed by the addition of another lipoplex containing 25 nM of the sgRNA and 12.5 nM of the donor oligo (0.3 μL/well). Cells were lysed 48 hours post-transfection and gDNA was extracted and analyzed as further described in Example 5. The data is graphically represented in FIG. 20.
Fewer sites were detected in PHH for every guide tested as compared to the HekCas9 cell line, with no unique sites detected in PHH alone.

The values that follow come from patent US11795460B2, “Compositions and methods for TTR gene editing and treating ATTR amyloidosis” (Intellia Therapeutics, Inc., priority 2017, dated 2023).

Strand notation (5' to 3'): a small letter for the sugar, then the base; units joined by * are phosphorothioate-linked, units joined directly phosphodiester-linked; [ ] holds rarer units or linkages, { } end groups; capitals alone tell only the bases. m = 2'-O-methyl; r = 2'-OH (RNA)

With “ACCUCUGCAUGCUCAUGGAA (tested as dual guide RNA, chemistry not given here) [CR003371]”, in the series on TTR [1], the “Avg % Deletion” value came to 0.14%, the “Avg % Edit” value is 1.83% and the “Avg % Insert” value turned out to be 1.69%.
As to “CUGGUAUUUGUGUCUGAGGC (tested as dual guide RNA, chemistry not given here) [CR003341]”, in the series on TTR [1], the “Avg % Deletion” value is given as 0.77%, the “Avg % Edit” value amounted to 8.43% and the “Avg % Insert” value was determined as 7.66%.
Turning to “ACACAAAUACCAGUCCAGCA (tested as dual guide RNA, chemistry not given here) [CR003339]”, in the series with TTR [1], the “Avg % Deletion” value came out at 4.02%, the “Avg % Edit” value is given as 8.95% and the “Avg % Insert” value is listed as 4.93%.
For the molecule “ACGUGUCUUCUCUACACCCA (tested as dual guide RNA, chemistry not given here) [CR005302]”, in the series with TTR [1], the “Avg % Deletion” value is recorded as 0.08%, the “Avg % Edit” value was determined as 1.34% and the “Avg % Insert” value worked out at 1.26%.
For “CUCUGCAUGCUCAUGGAAUG (tested as dual guide RNA, chemistry not given here) [CR003369]”, in that order: 0.25%, 1.53% and 1.28%.
The like results for “GCCGUGGUGGAAUAGGAGUA (tested as dual guide RNA, chemistry not given here) [CR003387]” were, in that order, 0.17%, 4.72% and 4.55%.
With “AUGCAGCUCUCCAGACUCAC (tested as dual guide RNA, chemistry not given here) [CR003358]”, in the series on TTR [1], the “Avg % Deletion” value was found to be 1.46%, the “Avg % Edit” value is recorded as 20.47% and the “Avg % Insert” value came to 19.01%.
“AAUAGGAGUAGGGGCUCAGC (tested as dual guide RNA, chemistry not given here) [CR003384]”: in the series on TTR [1], the “Avg % Deletion” value is on record as 1.25%, the “Avg % Edit” value is on record as 3.75% and the “Avg % Insert” value stood at 2.50%.
The like results for “AAAGGCUGCUGAUGACACCU (tested as dual guide RNA, chemistry not given here) [CR003353]” were, in that order, 0.08%, 4.75% and 4.67%.
Regarding “UGGACUGGUAUUUGUGUCUG (tested as dual guide RNA, chemistry not given here) [CR003340]”, in the series with TTR [1], the “Avg % Deletion” value worked out at 4.80%, the “Avg % Edit” value came to 12.53% and the “Avg % Insert” value is listed as 7.72%.
In the case of “CCAGUCCAGCAAGGCAGAGG (tested as dual guide RNA, chemistry not given here) [CR003337]”, in the series with TTR [1], the “Avg % Deletion” value came to 0.84%, the “Avg % Edit” value came out at 24.94% and the “Avg % Insert” value is reported as 24.10%.

B1: G000489: TTR sgRNA modified sequence, Human, SEQ ID No. 96; guide sequence of CR003344 (nucleic acid)
guide: mU*mU*mU*rGrArCrCrArUrCrArGrArGrGrArCrArCrUrGrUrUrUrUrArGrAmGmCmUmAmGmAmAmAmUmAmGmCrArArGrUrUrArArArArUrArArGrGrCrUrArGrUrCrCrGrUrUrArUrCrAmAmCmUmUmGmAmAmAmAmAmGmUmGmGmCmAmCmCmGmAmGmUmCmGmGmUmGmCmU*mU*mU*mU
Take B1: in the series on TTR [2], the “Avg % Deletion” value was determined as 10.28%, the “Avg % Edit” value was 24.25% and the “Avg % Insert” value is 14.17%. In addition, in series [3], the “# Sites in PHH” value was 2.

B2: G000499: TTR sgRNA modified sequence, Human, SEQ ID No. 106; guide sequence of CR005303 (nucleic acid)
guide: mU*mG*mA*rArUrCrCrArArGrUrGrUrCrCrUrCrUrGrArGrUrUrUrUrArGrAmGmCmUmAmGmAmAmAmUmAmGmCrArArGrUrUrArArArArUrArArGrGrCrUrArGrUrCrCrGrUrUrArUrCrAmAmCmUmUmGmAmAmAmAmAmGmUmGmGmCmAmCmCmGmAmGmUmCmGmGmUmGmCmU*mU*mU*mU
As to B2, in the series with TTR [2], the “Avg % Deletion” value was determined as 0.77%, the “Avg % Edit” value is listed as 39.30% and the “Avg % Insert” value worked out at 38.58%. The “# Sites in PHH” value in series [3] is reported as 1.

B3: G000481: TTR sgRNA modified sequence, Human, SEQ ID No. 88; guide sequence of CR003345 (nucleic acid)
guide: mU*mC*mU*rArGrArArCrUrUrUrGrArCrCrArUrCrArGrGrUrUrUrUrArGrAmGmCmUmAmGmAmAmAmUmAmGmCrArArGrUrUrArArArArUrArArGrGrCrUrArGrUrCrCrGrUrUrArUrCrAmAmCmUmUmGmAmAmAmAmAmGmUmGmGmCmAmCmCmGmAmGmUmCmGmGmUmGmCmU*mU*mU*mU
With B3, in the series on TTR [2], the “Avg % Deletion” value was 19.77%, the “Avg % Edit” value was found to be 34.30% and the “Avg % Insert” value is listed as 14.62%. Also, in series [3], the “# Sites in PHH” value stood at 0.

B4: G000480: TTR sgRNA modified sequence, Human, SEQ ID No. 87; guide sequence of CR003353 (nucleic acid)
guide: mA*mA*mA*rGrGrCrUrGrCrUrGrArUrGrArCrArCrCrUrGrUrUrUrUrArGrAmGmCmUmAmGmAmAmAmUmAmGmCrArArGrUrUrArArArArUrArArGrGrCrUrArGrUrCrCrGrUrUrArUrCrAmAmCmUmUmGmAmAmAmAmAmGmUmGmGmCmAmCmCmGmAmGmUmCmGmGmUmGmCmU*mU*mU*mU
Turning to B4, in the series on TTR [2], the “Avg % Deletion” value is recorded as 13.47%, the “Avg % Edit” value worked out at 73.28% and the “Avg % Insert” value turned out to be 59.85%. Moreover, the “# Sites in PHH” value in series [3] turned out to be 2.

B5: G000494: TTR sgRNA modified sequence, Human, SEQ ID No. 101; guide sequence of CR003360 (nucleic acid)
guide: mG*mU*mG*rArGrUrCrUrGrGrArGrArGrCrUrGrCrArUrGrUrUrUrUrArGrAmGmCmUmAmGmAmAmAmUmAmGmCrArArGrUrUrArArArArUrArArGrGrCrUrArGrUrCrCrGrUrUrArUrCrAmAmCmUmUmGmAmAmAmAmAmGmUmGmGmCmAmCmCmGmAmGmUmCmGmGmUmGmCmU*mU*mU*mU
As for B5, in the series on TTR [2], the “Avg % Deletion” value amounted to 1.07%, the “Avg % Edit” value is on record as 26.22% and the “Avg % Insert” value is on record as 25.17%. In addition, the “# Sites in PHH” value in series [3] is 0.

B6: G000482: TTR sgRNA modified sequence, Human, SEQ ID No. 89; guide sequence of CR003365 (nucleic acid)
guide: mU*mG*mU*rArGrArArGrGrGrArUrArUrArCrArArArGrGrUrUrUrUrArGrAmGmCmUmAmGmAmAmAmUmAmGmCrArArGrUrUrArArArArUrArArGrGrCrUrArGrUrCrCrGrUrUrArUrCrAmAmCmUmUmGmAmAmAmAmAmGmUmGmGmCmAmCmCmGmAmGmUmCmGmGmUmGmCmU*mU*mU*mU
B6: in the series on TTR [2], the “Avg % Deletion” value is 13.25%, the “Avg % Edit” value amounted to 40.93% and the “Avg % Insert” value was 27.70%. Moreover, in series [3], the “# Sites in PHH” value worked out at 2.

B7: G000488: TTR sgRNA modified sequence, Human, SEQ ID No. 95; guide sequence of CR003346 (nucleic acid)
guide: mA*mA*mA*rGrUrUrCrUrArGrArUrGrCrUrGrUrCrCrGrGrUrUrUrUrArGrAmGmCmUmAmGmAmAmAmUmAmGmCrArArGrUrUrArArArArUrArArGrGrCrUrArGrUrCrCrGrUrUrArUrCrAmAmCmUmUmGmAmAmAmAmAmGmUmGmGmCmAmCmCmGmAmGmUmCmGmGmUmGmCmU*mU*mU*mU
On to B7, for which, in the series on TTR [2], the “Avg % Deletion” value was 37.48%, the “Avg % Edit” value was 49.40% and the “Avg % Insert” value is 11.98%. Besides, in series [3], the “# Sites in PHH” value was 0.
